Source: US7806924B2 (Cordis Corporation, priority 2004, dated 2010)
Values belong to the molecule of their own block, whether it stands above or below them.

Experiments:
[1] = tested on: human coronary artery smooth muscle cells; experiment: Anti-proliferative activity in non-synchronized cultured human coronary artery smooth muscle cells stimulated with two percent fetal bovine serum; assay type: cell-based; conditions: for effect on the anti-proliferative activity of rapamycin (shift of the rapamycin dose response curve): added to cells treated with rapamycin
From the text: The multiple curves represent various concentrations of mycophenolic acid ranging from zero to one thousand nanomolar concentrations.
FIG. 58 illustrates, in graphical format, the anti-proliferative activity of cladribine in non-synchronized cultured human coronary artery smooth muscle cells stimulated with two percent fetal bovine serum.
The multiple curves represent various concentrations of cladribine ranging from zero to nine hundred nanomolar concentrations.

[2] = In vivo release kinetics of rapamycin and mycophenolic acid, porcine pharmacokinetics studies
From the text: The topcoat is two hundred micro grams.

[3] = tested on: human coronary artery smooth muscle cell proliferation; experiment: In vitro cell culture study of coronary artery smooth muscle cell proliferation; assay type: cell-based
From the text: FIG. 51 is a graph of the inhibition of coronary artery smooth muscle cells by trichostatin A in a cell culture study.

tumor cell lines = conditions: cited from earlier work
[4] = tested on: human smooth muscle cells; experiment: Cladribine Example: PDGF-stimulated proliferation, cell count on day six, smooth muscle cells; assay type: cell-based; conditions: from the IC50 values
Protocol: To assess the ability of cladribine to prevent cell proliferation, human smooth muscle or endothelial cells (Clonetics, Walkersville, Md.) were seeded at a density of 2000 cells/cm^2 (approximately 3600 cells/well) into each well of 12-well plates and cultured with 1.5 ml of growth medium containing five percent fetal calf serum (FCS). After twenty-four hours, the growth medium was changed and fresh medium containing 10 ng/ml platelet-derived growth factor AB (PDGF AB; LIFE Technologies), as well as various concentrations of cladribine (0.001-10,000 nM) were added with triplicate wells. Medium was replaced with fresh cladribine-containing medium after three days. On day six, cells were detached by trypsinization to yield a cell suspension, lightly centrifuged to pellet and then counted manually using a Neubauer hemocytometer system. Cell viability was assessed by trypan blue exclusion.

[5] = In vivo release kinetics of rapamycin and cladribine, porcine pharmacokinetics studies; design: species or system Yorkshire pigs; conditions: Bx Velocity stents, FIG. 63 compared to FIG. 62
From the text: (§1) The basecoat is applied to Bx Velocity® stents and implanted into Yorkshire pigs.
as §1

SMILES: COc1c(C)c2c(c(O)c1C/C=C(\C)CCC(=O)O)C(=O)OC2 [mycophenolic acid]
effect on the anti-proliferative activity of rapamycin (shift of the rapamycin dose response curve) [1]: potentiates | in vivo release from EVA/BMA basecoat (with or without BMA topcoat) ([2]; 180 micro grams rapamycin, 180 micro grams mycophenolic acid, 240 micro grams EVA/BMA): elutes more completely over a shorter duration than the rapamycin

SMILES: CO[C@H]1C[C@@H]2CC[C@@H](C)[C@@](O)(O2)C(=O)C(=O)N2CCCC[C@H]2C(=O)O[C@H]([C@H](C)C[C@@H]2CC[C@@H](O)[C@H](OC)C2)CC(=O)[C@H](C)/C=C(\C)[C@@H](O)[C@@H](OC)C(=O)[C@H](C)C[C@H](C)/C=C/C=C/C=C/1C [Rapamycin, rapamycin]
in vivo release rate from PVDF basecoat with PVDF topcoat ([2]; six hundred micro grams basecoat, two hundred micro grams topcoat): slower release rate than that of mycophenolic acid

SMILES: CC(/C=C/C(=O)NO)=C\[C@@H](C)C(=O)c1ccc(N(C)C)cc1 [trichostatin A]
inhibition of human coronary artery smooth muscle cell proliferation [3]: completely inhibit | IC50 ([3]; read-out: anti-proliferative IC50): ~6 nM | anti-proliferative IC50's (tumor cell lines): low nM range

in vivo elution from EVA/BMA basecoat with BMA topcoat [5]: elutes more rapidly than rapamycin
SMILES: Nc1nc(Cl)nc2c1ncn2[C@H]1C[C@H](O)[C@@H](CO)O1 [cladribine, 2-chlorodeoxyadenosine]
inhibition of human coronary artery smooth muscle cell proliferation ([1]; FIG. 58): completely inhibits | effect on the anti-proliferative activity of rapamycin (shift of the rapamycin dose response curve) [1]: potentiate | potency as inhibitor of smooth muscle cells relative to endothelial cells [4]: approximately twice
